# Reference: PubChem BioAssay AID298 (DTP/NCI, 2004)
# Where “and” joins values, the source holds several entries; their conditions need not be identical. Equal values may be shown once. Records with an inconclusive call do not appear.
# System: MX-1 breast xenograft, intrarenal, nude mice, tumor weight
# Experiment: NCI In Vivo Anticancer Drug Screen. Data for tumor model Human Mammary Carcinoma MX-1 Xenograft (intrarenal inoculation) in NU/NU BALB/C (nude) mice
# Conditions: endpoint: mean tumor weight change, higher = larger tumour
# In short: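 Antitumor activity is expressed as a T/C ratio. The treated group's tumor size or survival is compared against the vehicle-treated control group in mice bearing transplanted tumors.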
smiles,measurement,setting,value
C=C(C)/C([O-])=N/[N+](C)(C)CC(O)CCCCCCCCCCCC (configuration not stated),T/C,"dose: 5.0 mg/kg/injection, schedule: Q04DX003 (ip), vehicle: Klucel (hydroxypropylcellulose) (HPC)",76 % of control
same,T/C,"dose: 10.0 mg/kg/injection, schedule: Q04DX003 (ip), vehicle: Klucel (hydroxypropylcellulose) (HPC)",111 % of control
same,T/C,"dose: 20.0 mg/kg/injection, schedule: Q04DX003 (ip), vehicle: Klucel (hydroxypropylcellulose) (HPC)",90 % of control and 103 % of control
same,T/C,"dose: 40.0 mg/kg/injection, schedule: Q04DX003 (ip), vehicle: Klucel (hydroxypropylcellulose) (HPC)",78 % of control
same,T/C,"dose: 80.0 mg/kg/injection, schedule: Q04DX003 (ip), vehicle: Klucel (hydroxypropylcellulose) (HPC)",102 % of control and 118 % of control
same,T/C,"dose: 320.0 mg/kg/injection, schedule: Q04DX003 (ip), vehicle: Klucel (hydroxypropylcellulose) (HPC)",85 % of control
O=C(O)CC(=O)O.[NH-]C1CCCCC1[NH-].[Pt+2] (configuration not stated),T/C,"dose: 10.0 mg/kg/injection, schedule: Q01DX010 (sc), vehicle: dextrose",93 % of control
same,T/C,"dose: 20.0 mg/kg/injection, schedule: Q01DX010 (sc), vehicle: dextrose",92 % of control
same,T/C,"dose: 30.0 mg/kg/injection, schedule: Q01DX010 (sc), vehicle: dextrose",-84 % of control
same,T/C,"dose: 40.0 mg/kg/injection, schedule: Q01DX010 (sc), vehicle: dextrose",83 % of control
same,T/C,"dose: 60.0 mg/kg/injection, schedule: Q01DX010 (sc), vehicle: dextrose",-86 % of control
same,T/C,"dose: 80.0 mg/kg/injection, schedule: Q01DX010 (sc), vehicle: dextrose",74 % of control
Cc1ccc2c(c1)C1(SC(C)C(=O)N1c1ccc(Cl)cc1)C(=O)N2 (configuration not stated),T/C,"dose: 100.0 mg/kg/injection, schedule: Q04DX003 (ip), vehicle: saline with Tween-80",107 % of control
same,T/C,"dose: 200.0 mg/kg/injection, schedule: Q04DX003 (ip), vehicle: saline with Tween-80",85 % of control
same,T/C,"dose: 800.0 mg/kg/injection, schedule: Q04DX003 (ip), vehicle: saline with Tween-80",72 % of control
Cn1cc(NC(=O)c2cc(NC(=O)c3cc(NC=O)cn3C)cn2C)cc1C(=O)NCCC(=N)N,T/C,"dose: 50.0 mg/kg/injection, schedule: Q04DX003 (ip), vehicle: water",82 % of control
same,T/C,"dose: 100.0 mg/kg/injection, schedule: Q04DX003 (ip), vehicle: water",83 % of control
same,T/C,"dose: 200.0 mg/kg/injection, schedule: Q04DX003 (ip), vehicle: water",51 % of control
CC(=O)Oc1[nH]c(=O)c2cccc3c2c1CCC3,T/C,"dose: 300.0 mg/kg/injection, schedule: Q04DX003 (sc), vehicle: saline with Tween-80",107 % of control
same,T/C,"dose: 600.0 mg/kg/injection, schedule: Q04DX003 (sc), vehicle: saline with Tween-80",93 % of control
same,T/C,"dose: 1200.0 mg/kg/injection, schedule: Q04DX003 (sc), vehicle: saline with Tween-80",118 % of control
same,T/C,"dose: 2400.0 mg/kg/injection, schedule: Q04DX003 (sc), vehicle: saline with Tween-80",89 % of control
